Measurements: PubChem BioAssay AID248 (DTP/NCI, 2004)
Values joined by “and” are separate entries in the source; they are usually repeats but may differ in a detail not shown here. Equal entries are not always repeated. Inconclusive results and toxic doses are left out. Rule as the data show it: active = T/C of 150% or more; inactive = T/C below 125%.

System: L1210 leukemia ip in BDF1 mice, survival T/C
Experiment: NCI In Vivo Anticancer Drug Screen. Data for tumor model L1210 Leukemia (intraperitoneal) in B6D2F1 (BDF1) mice
Settings: endpoint: mean survival time, higher = longer survival
Procedure, shortened: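 Each compound was tested against a transplantable tumor grown in mice. The endpoint was survival, with treated animals benchmarked against vehicle controls as a simple ratio.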

[1] = dose: 100.0 mg/kg/injection, schedule: Q01DX001 (ip), vehicle: saline with Tween-80
[2] = dose: 200.0 mg/kg/injection, schedule: Q01DX001 (ip), vehicle: saline with Tween-80
[3] = dose: 400.0 mg/kg/injection, schedule: Q01DX001 (ip), vehicle: saline with Tween-80
[4] = dose: 50.0 mg/kg/injection, schedule: Q01DX009 (ip), vehicle: saline
[5] = dose: 100.0 mg/kg/injection, schedule: Q01DX009 (ip), vehicle: saline
[6] = dose: 50.0 mg/kg/injection, schedule: Q01DX009 (ip), vehicle: saline with Tween-80
[7] = dose: 100.0 mg/kg/injection, schedule: Q01DX009 (ip), vehicle: saline with Tween-80
[8] = dose: 200.0 mg/kg/injection, schedule: Q01DX009 (ip), vehicle: saline with Tween-80
[9] = dose: 400.0 mg/kg/injection, schedule: Q01DX009 (ip), vehicle: saline with Tween-80
[10] = dose: 100.0 mg/kg/injection, schedule: Q04DX003 (ip), vehicle: saline
[11] = dose: 200.0 mg/kg/injection, schedule: Q04DX003 (ip), vehicle: saline
[12] = dose: 400.0 mg/kg/injection, schedule: Q04DX003 (ip), vehicle: saline
[13] = dose: 25.0 mg/kg/injection, schedule: Q04DX003 (ip), vehicle: saline
[14] = dose: 50.0 mg/kg/injection, schedule: Q04DX003 (ip), vehicle: saline
[15] = dose: 25.0 mg/kg/injection, schedule: Q01DX009 (ip), vehicle: saline

Measured: T/C

c1ccc(C2=C(c3ccccc3)C(c3ccccc3)=C(c3ccccc3)CC2)cc1
inactive: [1] 89 % of control | [2] 89 % of control | [3] 86 % of control

COC(=O)c1c[nH]c2ccccc2c1=O
inactive: dose: 100.0 mg/kg/injection, schedule: Q01DX009 (ip), vehicle: Klucel (hydroxypropylcellulose) (HPC) 106 % of control | dose: 100.0 mg/kg/injection, schedule: Q04DX003 (ip), vehicle: Klucel (hydroxypropylcellulose) (HPC) 96 % of control | dose: 200.0 mg/kg/injection, schedule: Q01DX009 (ip), vehicle: Klucel (hydroxypropylcellulose) (HPC) 95 % of control | dose: 200.0 mg/kg/injection, schedule: Q04DX003 (ip), vehicle: Klucel (hydroxypropylcellulose) (HPC) 107 % of control | dose: 400.0 mg/kg/injection, schedule: Q01DX009 (ip), vehicle: Klucel (hydroxypropylcellulose) (HPC) 108 % of control | dose: 400.0 mg/kg/injection, schedule: Q04DX003 (ip), vehicle: Klucel (hydroxypropylcellulose) (HPC) 91 % of control

Nc1n[nH]c2cccc(Cl)c12
inactive: [4] 96 % of control | [5] 104 % of control | dose: 200.0 mg/kg/injection, schedule: Q01DX009 (ip), vehicle: saline 96 % of control

CC(=O)C(Br)C(C)=O.CC(=O)C(Br)C(C)=O.CC(=O)C(Br)C(C)=O.[Rh]
inactive: dose: 50.0 mg/kg/injection, schedule: Q01DX001 (ip), vehicle: other 97 % of control | dose: 100.0 mg/kg/injection, schedule: Q01DX001 (ip), vehicle: other 96 % of control | dose: 200.0 mg/kg/injection, schedule: Q01DX001 (ip), vehicle: other 94 % of control | dose: 400.0 mg/kg/injection, schedule: Q01DX001 (ip), vehicle: other 94 % of control

NC1=NN(c2ccccc2)C(=O)/C1=C\c1ccccc1
inactive: [6] 102 % of control | [7] 98 % of control | [8] 91 % of control

Cc1cc(C)c(C2=C(CC(=O)O)C(=O)c3ccccc3C2=O)c(C)c1
inactive: dose: 100.0 mg/kg/injection, schedule: Q04DX003 (ip), vehicle: gum acacia 92 % of control | dose: 200.0 mg/kg/injection, schedule: Q04DX003 (ip), vehicle: gum acacia 90 % of control | dose: 400.0 mg/kg/injection, schedule: Q04DX003 (ip), vehicle: gum acacia 90 % of control

CC1(C)N=C(N)N=C(N)N1c1cccc(CCC(=O)Nc2ccc(S(=O)(=O)F)cc2)c1
inactive: dose: 0.8 mg/kg/injection, schedule: Q01DX009 (ip), vehicle: saline 103 % of control | dose: 4.0 mg/kg/injection, schedule: Q01DX009 (ip), vehicle: saline 101 % of control | dose: 20.0 mg/kg/injection, schedule: Q01DX009 (ip), vehicle: saline 103 % of control | [5] 112 % of control

CC(C)C(NC(=O)C(F)(F)F)C(=O)O (stereo not given)
inactive: dose: 87.5 mg/kg/injection, schedule: Q04DX003 (ip), vehicle: saline 90 % of control | dose: 175.0 mg/kg/injection, schedule: Q04DX003 (ip), vehicle: saline 89 % of control

O=C(O)c1ccc(NC(=O)c2ccc(F)cc2)cc1
inactive: [7] 94 % of control | [8] 96 % of control | [9] 105 % of control

CCOC(=O)C(C)(C)CCC(C)(C)C(=O)OCC
inactive: dose: 100.0 mg/kg/injection, schedule: Q04DX002 (ip), vehicle: Klucel (hydroxypropylcellulose) (HPC) 97 % of control | dose: 200.0 mg/kg/injection, schedule: Q04DX002 (ip), vehicle: Klucel (hydroxypropylcellulose) (HPC) 103 % of control | dose: 400.0 mg/kg/injection, schedule: Q04DX002 (ip), vehicle: Klucel (hydroxypropylcellulose) (HPC) 90 % of control

COc1cc2c(c3oc4c(c(=O)c13)CCCC4)CCC(C)(C)O2
inactive: [10] 91 % of control | [11] 94 % of control | [12] 94 % of control

Cc1cc(Cl)sc1Cl
inactive: dose: 100.0 mg/kg/injection, schedule: Q01DX001 (ip), vehicle: carboxymethylcellulose (CMC) 98 % of control | dose: 200.0 mg/kg/injection, schedule: Q01DX001 (ip), vehicle: carboxymethylcellulose (CMC) 93 % of control | dose: 400.0 mg/kg/injection, schedule: Q01DX001 (ip), vehicle: carboxymethylcellulose (CMC) 92 % of control

Cc1cc(C(=O)CBr)c(CN2C(=O)c3ccccc3C2=O)c(=O)n1C
inactive: [1] 101 % of control

O=C1CC(c2cccc(S(=O)(=O)O)c2)=NN1c1ccc([N+](=O)[O-])cn1
inactive: dose: 12.5 mg/kg/injection, schedule: Q04DX003 (ip), vehicle: saline 95 % of control | [13] 95 % of control | [14] 95 % of control

O=C1c2cscc2C(=O)c2c(Cl)sc(Cl)c21
inactive: dose: 100.0 mg/kg/injection, schedule: Q04DX003 (ip), vehicle: acetone 102 % of control

O=C(CNC(=O)OCc1ccccc1)Nc1ccc(S(=O)(=O)c2ccc(NC(=O)CNC(=O)OCc3ccccc3)cc2)cc1
inactive: dose: 50.0 mg/kg/injection, schedule: Q01DX001 (ip), vehicle: saline 96 % of control | dose: 100.0 mg/kg/injection, schedule: Q01DX001 (ip), vehicle: saline 96 % of control | dose: 200.0 mg/kg/injection, schedule: Q01DX001 (ip), vehicle: saline 96 % of control | dose: 400.0 mg/kg/injection, schedule: Q01DX001 (ip), vehicle: saline 90 % of control

COc1cc(Cc2c(C=O)[nH]c(=S)[nH]c2=O)cc(OC)c1OC
inactive: [1] 90 % of control | [2] 89 % of control | [3] 96 % of control

C1=CC2(C=C1)OC21CCC2(C=CC3(C2)OC3C2CCCCC2)CC1 (stereo not given)
inactive: [6] 94 % of control | [7] 94 % of control

CC1(C)N=C(N)N=C(N)N1c1ccc(C(=O)c2ccccc2)cc1
inactive: [13] 96 % of control | [14] 89 % of control

CC1(C)OCC2SC(n3cnc4c(N)ncnc43)C(O)C2O1 (stereo not given)
inactive: [15] 94 % of control | dose: 33.0 mg/kg/injection, schedule: Q01DX001 (ip), vehicle: carboxymethylcellulose (CMC) 97 % of control | [4] 98 % of control | dose: 66.5 mg/kg/injection, schedule: Q01DX001 (ip), vehicle: carboxymethylcellulose (CMC) 92 % of control | dose: 100.0 mg/kg/injection, schedule: Q01DX005 (ip), vehicle: saline 94 % of control and 97 % of control | [5] 98 % of control | dose: 133.0 mg/kg/injection, schedule: Q01DX001 (ip), vehicle: carboxymethylcellulose (CMC) 92 % of control | dose: 200.0 mg/kg/injection, schedule: Q01DX005 (ip), vehicle: saline 95 % of control

NC(N)=N/N=C/c1ccccn1
inactive: dose: 15.0 mg/kg/injection, schedule: Q01DX Z (ip), vehicle: saline 94 % of control | dose: 30.0 mg/kg/injection, schedule: Q01DX Z (ip), vehicle: saline 102 % of control | dose: 60.0 mg/kg/injection, schedule: Q01DX Z (ip), vehicle: saline 95 % of control and 101 % of control | dose: 60.0 mg/kg/injection, schedule: Q01DX Z (oral), vehicle: saline 103 % of control | dose: 120.0 mg/kg/injection, schedule: Q01DX Z (ip), vehicle: saline 96 % of control and 98 % of control | dose: 120.0 mg/kg/injection, schedule: Q01DX Z (oral), vehicle: saline 108 % of control | dose: 240.0 mg/kg/injection, schedule: Q01DX Z (oral), vehicle: saline 103 % of control | dose: 480.0 mg/kg/injection, schedule: Q01DX Z (oral), vehicle: saline 107 % of control

OCC(O)COCc1ccccc1 (stereo not given)
inactive: dose: 100.0 mg/kg/injection, schedule: Q04DX003 (ip), vehicle: saline with Tween-80 109 % of control | dose: 200.0 mg/kg/injection, schedule: Q04DX003 (ip), vehicle: saline with Tween-80 104 % of control | dose: 400.0 mg/kg/injection, schedule: Q04DX003 (ip), vehicle: saline with Tween-80 106 % of control

[NH-]CC(=O)[N-]CC(=O)O.[NH-]CC(=O)[N-]CC(=O)O.[Ni]
inactive: [15] 86 % of control | [13] 107 % of control | [14] 116 % of control | [10] 98 % of control and 92 % of control

O=C(O)CNC(CSCc1ccccc1)CSCc1ccccc1
inactive: dose: 25.0 mg/kg/injection, schedule: Q01DX009 (ip), vehicle: saline with Tween-80 101 % of control | [6] 106 % of control | [7] 90 % of control | [8] 97 % of control | [9] 103 % of control

COB(CCCCB(OC)OC)OC
inactive: dose: 100.0 mg/kg/injection, schedule: Q01DX009 (ip), vehicle: saline sonified 96 % of control | [10] 100 % of control | dose: 200.0 mg/kg/injection, schedule: Q01DX009 (ip), vehicle: saline sonified 92 % of control | [11] 107 % of control | dose: 400.0 mg/kg/injection, schedule: Q01DX009 (ip), vehicle: saline sonified 87 % of control | [12] 94 % of control
